4 compounds from article doi:10.1101/2025.07.02.662713v1, “A FRET-based high-throughput screening assay for the discovery of Mycobacterium tuberculosis DNA ADP-ribosylglycohydrolase DarG inhibitors” (biorxiv, 2025) can be followed below.

Test [1] concerns the target T1, MtbDarG MD; CFP-MtbDarG MD (Mycobacterium tuberculosis, UniProt O53605).
T1 construct: gene darG
The experiment in a line: FRET displacement of PARylated YFP-GAP. Type of test: binding.

In another test the target is T2, PARP14 MD1 (Homo sapiens, UniProt Q460N5).
T2 construct: macrodomain 1 only, CFP fusion, produced as described earlier
T2 sequence (Q460N5 791-978 limits assumed): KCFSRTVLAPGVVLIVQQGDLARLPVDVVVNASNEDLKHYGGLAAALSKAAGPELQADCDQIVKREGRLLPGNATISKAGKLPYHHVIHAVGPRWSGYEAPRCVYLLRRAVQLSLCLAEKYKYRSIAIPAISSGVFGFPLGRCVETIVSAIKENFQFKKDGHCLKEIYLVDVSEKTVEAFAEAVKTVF
Briefly: FRET displacement of MARylated YFP-GAP. It counts as binding.

Test [2] addresses T3, MtbDarG (hydrolysis assay) (Mycobacterium tuberculosis, UniProt O53605).
T3 construct: gene darG
Briefly: gel-based ADP-ribosyl-ssDNA hydrolysis assay. As to conditions: 1 µM hydrolase, pranlukast 2-250 µM, pre-incubation 10 min; Tris pH 7.5, 37 °C, 30 min. Type of test: biochemical.

The next test addresses T4, PARP15 MD1 (Homo sapiens, UniProt Q460N3).
T4 construct: macrodomain 1 only, CFP fusion, produced as described earlier
T4 sequence (Q460N3 78-267 limits assumed): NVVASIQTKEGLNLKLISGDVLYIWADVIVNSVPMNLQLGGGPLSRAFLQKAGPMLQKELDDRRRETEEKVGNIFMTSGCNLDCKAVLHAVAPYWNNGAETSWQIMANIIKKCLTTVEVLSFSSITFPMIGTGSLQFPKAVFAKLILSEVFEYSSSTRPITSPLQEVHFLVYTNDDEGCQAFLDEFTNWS
The experiment in a line: FRET displacement of MARylated YFP-GAP. It counts as binding.

In a further test the target is T5, T. aq. DarG; T.aq. DarG (Thermus aquaticus, UniProt P0DV57).
T5 construct: recombinant, prepared as previously published
T5 sequence (P0DV57 1-360): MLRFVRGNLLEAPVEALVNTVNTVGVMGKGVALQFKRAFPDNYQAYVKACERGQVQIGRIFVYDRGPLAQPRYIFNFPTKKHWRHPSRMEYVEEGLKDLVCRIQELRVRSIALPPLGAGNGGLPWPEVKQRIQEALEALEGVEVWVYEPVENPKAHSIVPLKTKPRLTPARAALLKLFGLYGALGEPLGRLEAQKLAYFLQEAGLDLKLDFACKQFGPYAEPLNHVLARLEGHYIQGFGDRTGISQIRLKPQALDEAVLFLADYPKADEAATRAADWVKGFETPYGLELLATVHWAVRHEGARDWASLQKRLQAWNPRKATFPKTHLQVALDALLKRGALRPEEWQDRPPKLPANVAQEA
Briefly: gel-based ADP-ribosyl-ssDNA hydrolysis assay. It counts as biochemical. As to conditions: 1 µM hydrolase, pranlukast 2-250 µM, pre-incubation 10 min; Tris pH 7.5, 37 °C, 30 min. An excerpt:
gel-based ADP-ribosyl-ssDNA hydrolysis assay on T. aq. DarG; T.aq.

The target of the next test is T6, PARP9 MD1 (Homo sapiens, UniProt Q8IXQ6).
T6 construct: macrodomain 1 only, CFP fusion, produced as described earlier
Briefly: FRET displacement of MARylated YFP-GAP. It counts as binding.

Another test deals with T7, SCO6735 (Streptomyces coelicolor, UniProt Q9X7P1).
T7 construct: recombinant, prepared as previously published
T7 sequence (Q9X7P1 1-161): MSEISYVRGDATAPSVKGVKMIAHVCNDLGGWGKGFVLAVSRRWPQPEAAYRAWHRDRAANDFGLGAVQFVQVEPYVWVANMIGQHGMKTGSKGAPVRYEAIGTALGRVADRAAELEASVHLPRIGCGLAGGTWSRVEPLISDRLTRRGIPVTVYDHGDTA
The experiment in a line: gel-based ADP-ribosyl-ssDNA hydrolysis assay. The note with it: 1 µM hydrolase, pranlukast 2-250 µM, pre-incubation 10 min; Tris pH 7.5, 37 °C, 30 min. It counts as biochemical.

T1 sequence (O53605 1-155): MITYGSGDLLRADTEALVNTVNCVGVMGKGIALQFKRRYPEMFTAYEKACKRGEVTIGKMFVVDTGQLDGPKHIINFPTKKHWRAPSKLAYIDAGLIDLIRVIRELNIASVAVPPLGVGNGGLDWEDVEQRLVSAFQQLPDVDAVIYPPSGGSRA
T3 sequence (O53605 whole entry): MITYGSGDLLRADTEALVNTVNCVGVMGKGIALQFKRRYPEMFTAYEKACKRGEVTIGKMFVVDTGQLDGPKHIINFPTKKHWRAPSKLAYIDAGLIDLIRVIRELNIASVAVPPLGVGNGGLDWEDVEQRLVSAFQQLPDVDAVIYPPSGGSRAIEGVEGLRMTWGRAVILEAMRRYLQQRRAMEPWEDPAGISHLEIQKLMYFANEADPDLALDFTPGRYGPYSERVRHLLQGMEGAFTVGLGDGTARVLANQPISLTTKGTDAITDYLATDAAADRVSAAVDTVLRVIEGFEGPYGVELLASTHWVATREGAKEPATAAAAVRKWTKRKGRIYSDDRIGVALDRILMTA

The compound `Cc1cc(SCc2sc(-c3ccc(C(F)(F)F)cc3)nc2C)ccc1OCC(=O)O` [GW501516] registered a 50% inhibitory concentration (IC50) in test [1] of 56.5 µM.

In the case of `O=C(O)C(=O)c1cn(Cc2ccccc2)c2ccc(-c3ccc(OC(F)(F)F)cc3)cc12` [tiplaxtinin], the IC50 in test [1] worked out at 5.7 µM.

As for `O=C(Nc1cccc2c(=O)cc(-c3nn[nH]n3)oc12)c1ccc(OCCCCc2ccccc2)cc1` [pranlukast], the IC50 on PARP14 MD1 was roughly 100 µM; on PARP15 MD1, roughly 100 µM; in test [1], 4 µM; at PARP9 MD1, roughly 100 µM. Further, the “gel-based ADP-ribosyl-ssDNA hydrolysis assay” value in test [2] was “pranlukast inhibited the enzymatic activity of MtbDarG on this ADP-ribosylated ssDNA substrate”; at T. aq. DarG; T.aq. DarG it was “pranlukast exhibited an even higher inhibitory potency against DarG from Thermus aquaticus bacterium”; on SCO6735, “DarG from Thermus aquaticus bacterium (T.aq. DarG) and SCO6735”.

Regarding `COc1ccc(-c2ccccc2)cc1NS(=O)(=O)c1cc(Cl)cc(Cl)c1O` [BMS303141], the IC50 in test [1] worked out at 18.7 µM.
